Assay results reported in publication PMC10455339, “Combining the Peptide RWQWRWQWR and an Ethanolic Extract of Bidens pilosa Enhances the Activity against Sensitive and Resistant Candida albicans and C. auris Strains” (Journal of Fungi, 2023).
In brackets after ≈: the same amount, converted by molar mass. Read-outs that look alike come from different tables or passages of the source.

Columns and labels:
C. auris 435-PUJ-HUSI = assay: Antifungal activity (MIC/MFC), broth microdilution; type: cell-based, Candida auris; settings: Candidozyma auris, 435PUJHUSI, FLC-sensitive isolate, n = 3; for MIC: CLSI M27-A4 modified, RPMI 1640, 37 °C, 48 h, MIC = 50% growth inhibition, read-out: MIC; for MFC: subculture on SDA 24 h 37 °C, MFC = eliminates 100% of growth, read-out: MFC
Experimental: (§1) For the determination of the MICs, the guidelines of the Clinical Laboratory Standards Institute (CLSI BMD-M27-A4) were used with some modifications. Serial dilutions were made, for peptides from 6.25 to 200 µg/mL and for extracts from 31.2 to 2000 µg/mL, with RPMI 1640 medium in a 96-well microdilution plate (100 µL), and then 100 µL of the adjusted inoculum (0.5–2.5 × 10^3 cells/mL) was added and incubated at 37 °C, and visual and spectrophotometric reading (595 nm) was performed at 48 h. Controls: growth control in RPMI or DMSO, control with a known antifungal: FLC, C. albicans SC5314 (1 µg/mL), C. albicans 256 (64 µg/mL), C. auris 435 (8 µg/mL), and C. auris 537 (128 µg/mL), sterility controls correspond to RPMI medium and SS. The MIC was defined as the minimum concentration of peptide or extract that inhibited 50% of growth compared to the control. To determine the minimal fungicidal concentration (MFC), from the concentrations where no growth was observed, including the controls, a subculture was made on SDA and incubated for 24 h at 37 °C. The MFC was defined as the minimum concentration of peptide or extract that eliminated 100% of the growth compared to the control (n = 3).

C. auris 537-PUJ-HUSI = assay: Antifungal activity (MIC/MFC), broth microdilution; type: cell-based, Candida auris; settings: Candidozyma auris, 537PUJHUSI, FLC- and AmB-resistant isolate, n = 3; for MIC: CLSI M27-A4 modified, RPMI 1640, 37 °C, 48 h, MIC = 50% growth inhibition, read-out: MIC; for MFC: subculture on SDA 24 h 37 °C, MFC = eliminates 100% of growth, read-out: MFC
Experimental: as §1

C. albicans 256-PUJ-HUSI = assay: Antifungal activity (MIC/MFC), broth microdilution; type: cell-based, Candida albicans; settings: Candida albicans, 256PUJHUSI, FLC-resistant isolate, n = 3; for MIC: CLSI M27-A4 modified, RPMI 1640, 37 °C, 48 h, MIC = 50% growth inhibition, read-out: MIC; for MFC: subculture on SDA 24 h 37 °C, MFC = eliminates 100% of growth, read-out: MFC
Experimental: as §1

C. albicans SC5314 [1] = assay: microbe, parasite or virus in culture; type: cell-based, Candida albicans; settings: Candida albicans, SC5314, n = 3; for MIC: CLSI M27-A4 modified, RPMI 1640, 37 °C, 48 h, MIC = 50% growth inhibition, read-out: MIC; for MFC: subculture on SDA 24 h 37 °C, MFC = eliminates 100% of growth, read-out: MFC
Experimental: as §1

C. albicans 256 [2] = tested on: C. albicans 256
Experimental: (§2) This was performed using the checkerboard test, with some adjustments. Briefly, peptide or extract with FLC, peptide with extract, and extract, peptide, and FLC (final concentrations: 0, 0.06, 0.12, 0.25, 0.50, 1, and 2 times the MIC) were mixed. […] The fractional inhibitory concentration index (FIC I) was calculated as follows: [A/MIC A] + [P/MIC P] = FIC I, where MIC A and MIC P are the MICs of the individual peptide, extract, and/or antifungal. A and P are the MICs of the same, but in combination.
(§3) The combinations were classified as synergistic (FIC I ≤ 0.5), additive (FIC I > 0.5–1), indifferent (FIC I > 1 < 4), or antagonistic (FIC I > 4).

C. auris 537 [3] = tested on: C. auris 537
Experimental: as §2, §3

C. albicans SC5314 [4] = tested on: C. albicans SC5314
Experimental: as §2, §3

C. auris 435 = tested on: C. auris 435
Experimental: as §2, §3

C. albicans 256 [5] = settings: previously published, cited from earlier work
Experimental: (§4) Table 5 Synergy test. Combination of R-1-R with FLC against C. albicans and C. auris. | column: MICR-1-R; MICFLC; R-1-R; FLC; FIC Index; MICR-1-R/R-1-R; MICFLC/FLC || Initially, the antifungal activity of mixtures of R-1-R/FLC against the C. albicans and C. auris strains was evaluated (Table 5). […] The MIC value of FLC in C. albicans SC5314 was reduced by a factor of 2, while that in C. albicans 256 was reduced by a factor of 8.

C. auris 537 [6] = settings: previously published, cited from earlier work
Experimental: as §4

C. albicans = settings: cited from earlier work
Text: Antifungal activity of other phenolic acids, such as chlorogenic acid, has been reported against Candida spp. resistant to FLC, generating a death process similar to apoptosis.

[7] = B. pilosa extract combined with FLC
[8] = B. pilosa extract combined with FLC, checkerboard, 37 °C, 48 h
[9] = B. pilosa extract, R-1-R and FLC combined
[10] = B. pilosa extract, R-1-R and FLC combined, checkerboard, 37 °C, 48 h
[11] = R-1-R combined with FLC, checkerboard, 37 °C, 48 h

Compound: O=C(O)/C=C/c1ccc(O)c(O)c1 [Caffeic acid]
- MIC (C. auris 435-PUJ-HUSI): > 2000 µg/mL
- MFC (C. auris 435-PUJ-HUSI): > 2000 µg/mL
- MIC (C. auris 537-PUJ-HUSI): > 2000 µg/mL
- MFC (C. auris 537-PUJ-HUSI): > 2000 µg/mL
- MIC (C. albicans 256-PUJ-HUSI): > 2000 µg/mL
- MFC (C. albicans 256-PUJ-HUSI): > 2000 µg/mL
- MIC (C. albicans SC5314 [1]): > 2000 µg/mL
- MFC (C. albicans SC5314 [1]): > 2000 µg/mL

Compound: O=C(/C=C/c1ccc(O)c(O)c1)O[C@@H](C(=O)O)[C@@H](O)C(=O)O [Caftaric acid]
- MIC (C. auris 435-PUJ-HUSI): > 1000 µg/mL
- MFC (C. auris 435-PUJ-HUSI): > 1000 µg/mL
- MIC (C. auris 537-PUJ-HUSI): > 1000 µg/mL
- MFC (C. auris 537-PUJ-HUSI): > 1000 µg/mL
- MIC (C. albicans 256-PUJ-HUSI): > 1000 µg/mL
- MFC (C. albicans 256-PUJ-HUSI): > 1000 µg/mL
- MIC (C. albicans SC5314 [1]): > 1000 µg/mL
- MFC (C. albicans SC5314 [1]): > 1000 µg/mL

Compound: O=C(/C=C/c1ccc(O)c(O)c1)O[C@@H]1C[C@](O)(C(=O)O)C[C@@H](O)[C@H]1O [Chlorogenic acid]
- MIC (C. auris 435-PUJ-HUSI): > 1000 µg/mL
- MFC (C. auris 435-PUJ-HUSI): > 1000 µg/mL
- MIC (C. auris 537-PUJ-HUSI): > 1000 µg/mL
- MFC (C. auris 537-PUJ-HUSI): > 1000 µg/mL
- MIC (C. albicans 256-PUJ-HUSI): > 1000 µg/mL
- MFC (C. albicans 256-PUJ-HUSI): > 1000 µg/mL
- MIC (C. albicans SC5314 [1]): > 1000 µg/mL
- MFC (C. albicans SC5314 [1]): > 1000 µg/mL

Compound: OC(Cn1cncn1)(Cn1cncn1)c1ccc(F)cc1F [FLC, fluconazole]
- MIC alone/MIC in combination (factor of potentiation) (C. albicans 256 [2]; [7]): 4
- MIC in combination (E, FLC) (C. albicans 256 [2]; [8]): 32 µg/mL
- MIC alone/MIC in combination (factor of potentiation) (C. albicans 256 [2]; [9]): 8
- MIC in combination (E, R-1-R, FLC) (C. albicans 256 [2]; [10]): 4 µg/mL
- MIC alone/MIC in combination (factor of potentiation) (C. auris 537 [3]; [7]): 4
- MIC in combination (E, FLC) (C. auris 537 [3]; [8]): 32 µg/mL
- MIC alone/MIC in combination (factor of potentiation) (C. auris 537 [3]; [9]): 16
- MIC in combination (E, R-1-R, FLC) (C. auris 537 [3]; [10]): 8 µg/mL
- MIC alone/MIC in combination (factor of potentiation) (C. albicans SC5314 [4]; [7]): 2
- MIC in combination (E, FLC) (C. albicans SC5314 [4]; [8]): 0.125 µg/mL
- MIC alone/MIC in combination (factor of potentiation) (C. albicans SC5314 [4]; [9]): 8
- MIC in combination (E, R-1-R, FLC) (C. albicans SC5314 [4]; [10]): 0.06 µg/mL
- MIC alone/MIC in combination (factor of potentiation) (C. albicans SC5314 [4]; R-1-R combined with FLC): 2
- MIC in combination (R-1-R, FLC) (C. albicans SC5314 [4]; [11]): 0.0625 µg/mL
- MIC alone/MIC in combination (factor of potentiation) (C. auris 435; [7]): 1
- MIC in combination (E, FLC) (C. auris 435; [8]): 8 µg/mL
- MIC alone/MIC in combination (factor of potentiation) (C. auris 435; [9]): 4
- MIC in combination (E, R-1-R, FLC) (C. auris 435; [10]): 1 µg/mL
- MIC alone/MIC in combination (factor of potentiation) (C. auris 435; R-1-R combined with FLC): 4
- MIC in combination (R-1-R, FLC) (C. auris 435; [11]): 2 µg/mL
- MIC alone/MIC in combination (factor of potentiation) (C. albicans 256 [5]; R-1-R combined with FLC): 8
- MIC in combination (R-1-R, FLC) (C. albicans 256 [5]; R-1-R combined with FLC): 4 µg/mL
- MIC of the agent alone (MICR-1-R, MICFLC) (C. albicans 256 [5]; checkerboard R-1-R + FLC): 32 µg/mL
- MIC alone/MIC in combination (factor of potentiation) (C. auris 537 [6]; R-1-R combined with FLC): 8
- MIC in combination (R-1-R, FLC) (C. auris 537 [6]; R-1-R combined with FLC): 8 µg/mL
- MIC of the agent alone (MICR-1-R, MICFLC) (C. auris 537 [6]; checkerboard R-1-R + FLC): 64 µg/mL

Compound: O=C(O)c1cc(O)c(O)c(O)c1 [Gallic acid]
- MIC (C. auris 435-PUJ-HUSI): 125 µg/mL (≈ 0.735 mM)
- MFC (C. auris 435-PUJ-HUSI): 1000 µg/mL (≈ 5.88 mM)
- MIC (C. auris 537-PUJ-HUSI): 62.5 µg/mL (≈ 0.367 mM)
- MFC (C. auris 537-PUJ-HUSI): 1000 µg/mL (≈ 5.88 mM)
- MIC (C. albicans 256-PUJ-HUSI): 62.5 µg/mL (≈ 0.367 mM)
- MFC (C. albicans 256-PUJ-HUSI): 125 µg/mL (≈ 0.735 mM)
- MIC (C. albicans SC5314 [1]): 125 µg/mL (≈ 0.735 mM)
- MFC (C. albicans SC5314 [1]): 250 µg/mL (≈ 1.47 mM)

Compound: C[C@@H]1O[C@@H](OC[C@H]2O[C@@H](Oc3c(-c4ccc(O)c(O)c4)oc4cc(O)cc(O)c4c3=O)[C@H](O)[C@@H](O)[C@@H]2O)[C@H](O)[C@H](O)[C@H]1O [Rutin]
- Reported active concentration (C. albicans): 1000 µg/mL
- MIC (C. auris 435-PUJ-HUSI): > 2000 µg/mL
- MFC (C. auris 435-PUJ-HUSI): > 2000 µg/mL
- MIC (C. auris 537-PUJ-HUSI): > 2000 µg/mL
- MFC (C. auris 537-PUJ-HUSI): > 2000 µg/mL
- MIC (C. albicans 256-PUJ-HUSI): > 2000 µg/mL
- MFC (C. albicans 256-PUJ-HUSI): > 2000 µg/mL
- MIC (C. albicans SC5314 [1]): > 2000 µg/mL
- MFC (C. albicans SC5314 [1]): > 2000 µg/mL

Compound: FKCRRWQWRM [Peptide 2, short peptide derived from LfcinB, …]
- MIC (C. albicans; reported against other C. albicans strains): 17.3 to 17.5 µM

Compound: FKCRRWQWRMKKLGA [LfcinB-20, short peptide derived from LfcinB, printed …]
- MIC (C. albicans; reported against C. albicans strains): 8 µg/mL
